Measurements: US20070098648A1, “Treating mouth sores caused by dental braces with blobs of hydrophilic gums” (priority 2002, published 2007)

Columns and labels:
mouth sores = experiment: experimentation with amoxicillin on conventional patches; assay type: in vivo; details: conventional amoxicillin powder for oral suspension, mixed into the patch and dried
Excerpt: Because use of antibiotics, antibacterials, and other pharmaceutical antimicrobials causes adverse side affects, experimentation with these medications has been limited. […] Conventional amoxicillin powder for preparation of oral suspension was used, which includes sugars and other excipients. The sugars act as a binder to the oral patch. The oral suspension is mixed into the patch or blob and dried. Preferably, the amoxicillin powder is mixed into a stronger than normal liquid before being added to the patch or blob.

[1] = side effects of glycyrrhetinic acid in the quantities a person could use per day; assay type: in vivo, human; details: in the quantities that a person could use per day
Excerpt: For medication to be placed in the patch or blob, any of the above-mentioned antimicrobials, or similar antimicrobials, may be used. […] The preferred quantity of glycyrrhetinic acid in each patch or blob is 5 to 7%.

SMILES | effect of amoxicillin on conventional patches (mouth sores) | side effects [1]
CC1(C)S[C@@H]2[C@H](NC(=O)[C@H](N)c3ccc(O)cc3)C(=O)N2[C@H]1C(=O)O [amoxicillin] | works quite well | –
CC1(C)[C@@H](O)CC[C@]2(C)[C@H]3C(=O)C=C4[C@@H]5C[C@@](C)(C(=O)O)CC[C@]5(C)CC[C@@]4(C)[C@]3(C)CC[C@@H]12 [glycyrrhetinic acid] | – | no side affects have been discovered
